Laboratory results reported in ChEMBL document CHEMBL2010736 (ACS Med Chem Lett, 2011).
Activity calls are given as the source filed them. The calls are words filed in the database; no cut-off is given here.

How the values were obtained:
Adenosine receptor A3 = molecular target: T1, Adenosine receptor A3 (Homo sapiens, UniProt P0DMS8); experiment: Displacement of [125I]AB-MECA from human recombinant adenosine receptor-3 expressed in CHO cell membrane after 60 mins by gamma-counting; assay type: cell membranes
T1 sequence (P0DMS8 whole entry): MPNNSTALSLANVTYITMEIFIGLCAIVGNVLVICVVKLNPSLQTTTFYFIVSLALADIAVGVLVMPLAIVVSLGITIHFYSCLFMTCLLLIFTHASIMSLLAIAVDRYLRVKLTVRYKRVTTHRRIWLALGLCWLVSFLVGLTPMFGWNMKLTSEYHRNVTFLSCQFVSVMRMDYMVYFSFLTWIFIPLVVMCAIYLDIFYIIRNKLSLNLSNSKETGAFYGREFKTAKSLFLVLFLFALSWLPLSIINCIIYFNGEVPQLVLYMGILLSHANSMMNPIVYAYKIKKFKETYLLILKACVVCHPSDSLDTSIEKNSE

[1] = molecular target: T2, Adenosine receptor A1 (Homo sapiens) (UniProt P30542); experiment: Agonist activity at human recombinant adenosine receptor-1 expressed in CHO cells assessed as inhibition of forskolin-stimulated cAMP production at 10 uM preincubated for 45 mins prior forskolin-induction measured after 15 mins by immunoassay relative to 10 uM CPA; assay type: functional, cell-based
T2 sequence (whole entry): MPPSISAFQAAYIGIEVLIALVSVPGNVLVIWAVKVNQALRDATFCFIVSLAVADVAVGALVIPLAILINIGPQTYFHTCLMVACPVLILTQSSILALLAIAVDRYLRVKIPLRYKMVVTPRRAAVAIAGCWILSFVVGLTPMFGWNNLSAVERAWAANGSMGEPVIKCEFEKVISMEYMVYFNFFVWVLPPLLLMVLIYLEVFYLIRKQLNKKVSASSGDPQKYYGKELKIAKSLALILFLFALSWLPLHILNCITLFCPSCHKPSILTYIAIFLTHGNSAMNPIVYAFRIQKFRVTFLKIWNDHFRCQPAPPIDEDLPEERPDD

Adenosine receptor A2a [2] = molecular target: T3, Adenosine receptor A2a (Homo sapiens, UniProt P29274); experiment: Displacement of [3H]CGS21680 from human recombinant adenosine receptor-2A expressed in HEK293 cell membrane after 60 mins by liquid scintillation counting; assay type: cell membranes
T3 sequence (P29274 whole entry): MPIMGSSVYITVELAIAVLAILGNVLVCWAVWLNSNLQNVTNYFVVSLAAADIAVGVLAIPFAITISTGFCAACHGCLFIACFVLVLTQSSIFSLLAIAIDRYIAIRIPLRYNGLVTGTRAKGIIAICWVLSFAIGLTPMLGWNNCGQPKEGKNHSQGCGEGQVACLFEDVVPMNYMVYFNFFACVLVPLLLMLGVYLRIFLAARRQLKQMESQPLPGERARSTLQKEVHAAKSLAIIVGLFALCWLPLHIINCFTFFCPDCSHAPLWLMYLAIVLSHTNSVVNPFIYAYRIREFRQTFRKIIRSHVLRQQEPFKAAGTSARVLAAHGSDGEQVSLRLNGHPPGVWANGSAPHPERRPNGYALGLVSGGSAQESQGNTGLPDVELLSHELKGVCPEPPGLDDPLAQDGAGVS

Adenosine receptor A1 [3] = molecular target: T4, Adenosine receptor A1 (Homo sapiens, UniProt P30542); experiment: Displacement of [3H]R-PIA from human recombinant adenosine receptor-1 expressed in CHO cell membrane after 60 mins by liquid scintillation counting; assay type: cell membranes
T4 sequence (P30542 whole entry): T2 sequence (whole entry)

Adenosine receptor A1 [4] = molecular target: T5, Adenosine receptor A1 (Rattus norvegicus, UniProt P25099); experiment: Displacement of [3H]R-PIA from rat forebrain adenosine receptor-1
T5 sequence (P25099 whole entry): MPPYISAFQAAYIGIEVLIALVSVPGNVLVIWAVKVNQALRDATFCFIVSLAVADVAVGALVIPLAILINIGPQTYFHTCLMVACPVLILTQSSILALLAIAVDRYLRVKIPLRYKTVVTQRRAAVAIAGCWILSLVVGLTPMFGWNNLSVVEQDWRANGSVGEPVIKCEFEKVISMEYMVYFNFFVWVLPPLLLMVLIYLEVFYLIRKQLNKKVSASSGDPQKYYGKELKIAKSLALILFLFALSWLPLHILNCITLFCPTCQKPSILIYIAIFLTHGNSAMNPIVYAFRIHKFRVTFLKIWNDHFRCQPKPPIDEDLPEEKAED

Adenosine receptor A2a [5] = molecular target: T3, Adenosine receptor A2a; experiment: Displacement of [3H]CGS21680 from human recombinant adenosine receptor-2A expressed in HEK293 cell membrane at 10 uM after 60 mins by liquid scintillation counting; assay type: cell membranes
Homo sapiens [6] = species on record: Homo sapiens; experiment: Selectivity ratio of Ki for human recombinant adenosine receptor-1 to Ki for human recombinant adenosine receptor-3
[7] = molecular target: T2, Adenosine receptor A1 (Homo sapiens); experiment: Displacement of [3H]R-PIA from human recombinant adenosine receptor-1 expressed in CHO cell membrane at 10 uM after 60 mins by liquid scintillation counting; assay type: cell membranes
Homo sapiens [8] = species on record: Homo sapiens; experiment: Selectivity ratio of Ki for human recombinant adenosine receptor-3 to Ki for human recombinant adenosine receptor-1
Adenosine receptor A1 [9] = molecular target: T4, Adenosine receptor A1; experiment: Agonist activity at human recombinant adenosine receptor-1 expressed in CHO cells assessed as inhibition of forskolin-stimulated cAMP production preincubated for 45 mins prior forskolin-induction measured after 15 mins by immunoassay; assay type: functional, cell-based
[10] = molecular target: T6, Adenosine receptor A3 (Rattus norvegicus) (UniProt P28647); experiment: Partial agonist activity at rat adenosine receptor-3; assay type: functional
T6 sequence (whole entry): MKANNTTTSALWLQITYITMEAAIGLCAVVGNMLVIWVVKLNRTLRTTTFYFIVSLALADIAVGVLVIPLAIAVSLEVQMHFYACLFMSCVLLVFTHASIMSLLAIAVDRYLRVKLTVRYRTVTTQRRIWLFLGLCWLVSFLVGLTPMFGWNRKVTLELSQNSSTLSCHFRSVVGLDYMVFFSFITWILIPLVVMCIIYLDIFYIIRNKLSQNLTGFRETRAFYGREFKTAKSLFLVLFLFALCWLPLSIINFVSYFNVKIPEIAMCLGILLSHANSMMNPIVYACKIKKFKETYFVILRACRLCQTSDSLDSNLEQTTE

[11] = molecular target: T7, Adenosine receptor A1 (Rattus norvegicus) (UniProt P25099); experiment: Antagonist activity at adenosine receptor-1 in rat adipocytes; assay type: functional, cell-based
T7 sequence (whole entry): T5 sequence (P25099 whole entry)

Row | Compound | Ki (Adenosine receptor A3) [nM] | inhibition [1] [%] | Ki (Adenosine receptor A1 [4]) [nM] | inhibition (Adenosine receptor A2a [5]) [%] | also measured
1 | O[C@@H]1[C@H](O)[C@@H]2C[C@@H]2[C@H]1n1cnc2c(N[C@@H]3C[C@H]4CC[C@H]3C4)nc(Cl)nc21 | 236 | 27.8 | 0.7 | – | Ki (Adenosine receptor A2a [2]): 4080 nM; Ki (Adenosine receptor A1 [3]): 200 nM
2 | O[C@@H]1[C@H](O)[C@@H]2C[C@@H]2[C@H]1n1cnc2c(NCc3ccccc3F)nc(Cl)nc21 | – | – | 6 | 31 | Ratio Ki (Homo sapiens [6]): 115
3 | O[C@@H]1[C@H](O)[C@@H]2C[C@@H]2[C@H]1n1cnc2c(NCc3ccccc3OCCF)nc(Cl)nc21 | – | – | – | 32 | inhibition [7]: 46%
4 | O[C@@H]1[C@H](O)[C@@H]2C[C@@H]2[C@H]1n1cnc2c(N[C@H]3C[C@H]4CC[C@H]3C4)nc(Cl)nc21 | 315 | 62.1 | 0.34 | – | Ki (Adenosine receptor A2a [2]): 2450 nM; Ratio Ki (Homo sapiens [8]): 4; Ki (Adenosine receptor A1 [3]): 82.6 nM
5 | O[C@@H]1[C@H](O)[C@@H]2C[C@@H]2[C@H]1n1cnc2c(NCC3CC3)nc(Cl)nc21 | – | 81 | 0.8 | – | –
6 | COc1cc(F)c(F)cc1CNc1nc(Cl)nc2c1ncn2[C@H]1[C@H](O)[C@H](O)[C@@H]2C[C@@H]21 | 40.4 | – | – | – | Ki (Adenosine receptor A2a [2]): 7510 nM; Ki (Adenosine receptor A1 [3]): 1910 nM
7 | O[C@@H]1[C@H](O)[C@@H]2C[C@@H]2[C@H]1n1cnc2c(NC3CCCCCC3)nc(Cl)nc21 | – | 48.1 | – | – | –
8 | Nc1nc(Cl)nc2c1ncn2[C@H]1[C@H](O)[C@H](O)[C@@H]2C[C@@H]21 | – | 68.1 | – | – | –
9 | CC(Nc1nc(Cl)nc2c1ncn2[C@H]1[C@H](O)[C@H](O)[C@@H]2C[C@@H]21)C1CC1 (mixture of isomers) | – | – | – | 41 | –
10 | O[C@@H]1[C@H](O)[C@@H]2C[C@@H]2[C@H]1n1cnc2c(NC3CCCCCCC3)nc(Cl)nc21 | – | 40.1 | – | 43 | Ratio Ki (Homo sapiens [8]): 2
11 | O[C@@H]1[C@H](O)[C@@H]2C[C@@H]2[C@H]1n1cnc2c(NC3CC3)nc(Cl)nc21 | – | 79 | – | – | –
12 | O[C@@H]1[C@H](O)[C@@H]2C[C@@H]2[C@H]1n1cnc2c(NCc3cccc(OCCF)c3)nc(Cl)nc21 | 114 | – | – | 46 | Ki (Adenosine receptor A1 [3]): 3580 nM
13 | CC(C)Nc1nc(Cl)nc2c1ncn2[C@H]1[C@H](O)[C@H](O)[C@@H]2C[C@@H]21 | – | 50.5 | 1.9 | 39 | –
14 | CCNc1nc(Cl)nc2c1ncn2[C@H]1[C@H](O)[C@H](O)[C@@H]2C[C@@H]21 | – | – | – | 11 | –
15 | O[C@@H]1[C@H](O)[C@@H]2C[C@@H]2[C@H]1n1cnc2c(NC(C3CC3)C3CC3)nc(Cl)nc21 | – | – | 0.8 | – | EC50 (Adenosine receptor A1 [9]): 40.7 nM
16 | O[C@@H]1[C@H](O)[C@@H]2C[C@@H]2[C@H]1n1cnc2c(NCCCF)nc(Cl)nc21 | – | 23.2 | – | 29 | –
17 | CCOc1ccccc1CNc1nc(Cl)nc2c1ncn2[C@H]1[C@H](O)[C@H](O)[C@@H]2C[C@@H]21 | 15.2 | – | – | 32 | inhibition [7]: 34%
18 | CCC(CC)Nc1nc(Cl)nc2c1ncn2[C@H]1[C@H](O)[C@H](O)[C@@H]2C[C@@H]21 | – | 28.6 | – | – | –
19 | O[C@@H]1[C@H](O)[C@@H]2C[C@@H]2[C@H]1n1cnc2c(NC3CCCCC3)nc(Cl)nc21 | – | 38 | 0.9 | – | Ratio Ki (Homo sapiens [8]): 2
20 | O[C@@H]1[C@H](O)[C@@H]2C[C@@H]2[C@H]1n1cnc2c(NC3CCC3)nc(Cl)nc21 | – | – | 0.7 | – | –
21 | O[C@@H]1[C@H](O)[C@@H]2C[C@@H]2[C@H]1n1cnc2c(NCc3cc(F)ccc3F)nc(Cl)nc21 | 16.5 | – | – | 38 | Ki (Adenosine receptor A1 [3]): 1260 nM
22 | COc1ccc(F)c(F)c1CNc1nc(Cl)nc2c1ncn2[C@H]1[C@H](O)[C@H](O)[C@@H]2C[C@@H]21 | 83.2 | – | – | 30 | inhibition [7]: 41%
23 | CCCCn1c(=O)c2c(ncn2[C@@H]2O[C@H](C(=O)NC)C[C@H]2O)n(CCCC)c1=O | – | – | – | – | Activity [10]: Active; Activity [11]: Active
